{
  "source": "paper PMC9814781",
  "about": "“Structure-based design of a dual-warhead covalent inhibitor of FGFR4” (Communications Chemistry, 2022)",
  "key": {"[1]": {"target": "TRKB (Homo sapiens, UniProt Q16620)", "test": "Kinase selectivity profiling"}, "[2]": {"target": "BRAF[V600E] (Homo sapiens, UniProt P15056, V600E)", "test": "Kinase selectivity profiling"}, "[3]": {"target": "RSK2 (Homo sapiens, UniProt P51812)", "test": "Kinase selectivity profiling"}, "[4]": {"target": "JNK2 (Homo sapiens, UniProt P45984)", "test": "Kinase selectivity profiling"}, "[5]": {"target": "SRC (Homo sapiens, UniProt P12931)", "test": "Kinase selectivity profiling"}, "[6]": {"target": "MAPKAPK2 (Homo sapiens, UniProt P49137)", "test": "Kinase selectivity profiling"}, "[7]": {"target": "SRM (Homo sapiens, UniProt Q9H3Y6)", "test": "Kinase selectivity profiling"}, "[8]": {"target": "EPHB1 (Homo sapiens, UniProt P54762)", "test": "Kinase selectivity profiling"}, "[9]": {"target": "JNK1 (Homo sapiens, UniProt P45983)", "sequence (P45983 whole entry)": "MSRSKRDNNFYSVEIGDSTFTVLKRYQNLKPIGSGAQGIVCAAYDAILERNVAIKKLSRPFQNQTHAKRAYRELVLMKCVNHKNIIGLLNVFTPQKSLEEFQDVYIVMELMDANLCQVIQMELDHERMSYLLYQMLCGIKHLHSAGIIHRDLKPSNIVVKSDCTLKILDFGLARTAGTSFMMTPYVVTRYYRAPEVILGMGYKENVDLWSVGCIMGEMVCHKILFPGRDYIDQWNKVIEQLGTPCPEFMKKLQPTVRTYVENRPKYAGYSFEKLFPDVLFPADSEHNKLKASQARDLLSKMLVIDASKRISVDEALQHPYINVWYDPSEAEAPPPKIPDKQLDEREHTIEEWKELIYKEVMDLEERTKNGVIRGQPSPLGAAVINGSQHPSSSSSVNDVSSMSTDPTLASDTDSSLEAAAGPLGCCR", "test": "Kinase selectivity profiling"}, "[10]": {"target": "p38α (Homo sapiens, UniProt Q16539)", "sequence (Q16539 whole entry)": "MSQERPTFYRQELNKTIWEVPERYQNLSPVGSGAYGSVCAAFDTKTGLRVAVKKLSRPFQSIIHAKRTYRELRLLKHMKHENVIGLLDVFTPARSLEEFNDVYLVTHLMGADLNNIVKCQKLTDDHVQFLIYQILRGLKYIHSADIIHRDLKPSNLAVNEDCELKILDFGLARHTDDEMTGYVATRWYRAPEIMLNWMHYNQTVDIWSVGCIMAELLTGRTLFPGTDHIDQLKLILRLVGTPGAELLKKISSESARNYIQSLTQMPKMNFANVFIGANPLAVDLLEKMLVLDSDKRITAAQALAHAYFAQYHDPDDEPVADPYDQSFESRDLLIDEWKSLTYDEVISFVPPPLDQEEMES", "test": "Kinase selectivity profiling"}, "[11]": {"target": "ALK (Homo sapiens, UniProt Q9UM73)", "test": "Kinase selectivity profiling"}, "[12]": {"target": "AurC (Homo sapiens, UniProt Q9UQB9)", "test": "Kinase selectivity profiling"}, "[13]": {"target": "PLK1 (Homo sapiens, UniProt P53350)", "test": "Kinase selectivity profiling"}, "[14]": {"target": "LCK (Homo sapiens, UniProt P06239)", "test": "Kinase selectivity profiling"}, "[15]": {"target": "TIE2 (Homo sapiens, UniProt Q02763)", "sequence (Q02763 23-1124)": "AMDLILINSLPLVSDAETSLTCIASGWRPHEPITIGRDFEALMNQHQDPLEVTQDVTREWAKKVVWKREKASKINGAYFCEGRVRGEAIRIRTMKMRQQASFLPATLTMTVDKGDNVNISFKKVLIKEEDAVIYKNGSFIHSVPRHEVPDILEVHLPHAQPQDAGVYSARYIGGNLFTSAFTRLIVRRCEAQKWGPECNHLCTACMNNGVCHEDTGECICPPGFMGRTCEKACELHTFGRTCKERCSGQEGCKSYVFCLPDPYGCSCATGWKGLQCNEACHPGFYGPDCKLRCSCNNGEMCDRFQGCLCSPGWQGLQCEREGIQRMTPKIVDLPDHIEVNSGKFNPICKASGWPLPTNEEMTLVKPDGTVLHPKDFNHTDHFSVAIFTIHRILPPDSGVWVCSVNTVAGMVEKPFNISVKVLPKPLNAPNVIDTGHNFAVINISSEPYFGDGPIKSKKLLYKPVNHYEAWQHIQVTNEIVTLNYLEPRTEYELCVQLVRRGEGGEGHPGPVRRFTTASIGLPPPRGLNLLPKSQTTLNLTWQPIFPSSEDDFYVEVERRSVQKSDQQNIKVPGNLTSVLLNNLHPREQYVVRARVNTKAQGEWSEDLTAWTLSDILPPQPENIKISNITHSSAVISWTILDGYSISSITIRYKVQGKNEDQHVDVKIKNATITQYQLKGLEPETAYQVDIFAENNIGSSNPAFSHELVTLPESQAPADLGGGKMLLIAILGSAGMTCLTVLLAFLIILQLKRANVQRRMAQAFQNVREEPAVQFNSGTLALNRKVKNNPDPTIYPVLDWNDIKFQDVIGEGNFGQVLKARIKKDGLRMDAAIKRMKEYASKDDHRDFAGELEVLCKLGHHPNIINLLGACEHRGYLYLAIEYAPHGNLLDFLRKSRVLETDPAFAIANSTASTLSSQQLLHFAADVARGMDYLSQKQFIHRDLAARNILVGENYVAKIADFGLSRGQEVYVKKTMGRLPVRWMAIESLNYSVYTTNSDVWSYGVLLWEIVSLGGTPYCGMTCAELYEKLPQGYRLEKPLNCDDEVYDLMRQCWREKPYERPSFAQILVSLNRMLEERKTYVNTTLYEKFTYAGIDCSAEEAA", "test": "Kinase selectivity profiling"}, "[16]": {"target": "RON (Homo sapiens, UniProt Q04912)", "test": "Kinase selectivity profiling"}, "[17]": {"target": "RET (Homo sapiens, UniProt P07949)", "sequence (P07949 29-1114)": "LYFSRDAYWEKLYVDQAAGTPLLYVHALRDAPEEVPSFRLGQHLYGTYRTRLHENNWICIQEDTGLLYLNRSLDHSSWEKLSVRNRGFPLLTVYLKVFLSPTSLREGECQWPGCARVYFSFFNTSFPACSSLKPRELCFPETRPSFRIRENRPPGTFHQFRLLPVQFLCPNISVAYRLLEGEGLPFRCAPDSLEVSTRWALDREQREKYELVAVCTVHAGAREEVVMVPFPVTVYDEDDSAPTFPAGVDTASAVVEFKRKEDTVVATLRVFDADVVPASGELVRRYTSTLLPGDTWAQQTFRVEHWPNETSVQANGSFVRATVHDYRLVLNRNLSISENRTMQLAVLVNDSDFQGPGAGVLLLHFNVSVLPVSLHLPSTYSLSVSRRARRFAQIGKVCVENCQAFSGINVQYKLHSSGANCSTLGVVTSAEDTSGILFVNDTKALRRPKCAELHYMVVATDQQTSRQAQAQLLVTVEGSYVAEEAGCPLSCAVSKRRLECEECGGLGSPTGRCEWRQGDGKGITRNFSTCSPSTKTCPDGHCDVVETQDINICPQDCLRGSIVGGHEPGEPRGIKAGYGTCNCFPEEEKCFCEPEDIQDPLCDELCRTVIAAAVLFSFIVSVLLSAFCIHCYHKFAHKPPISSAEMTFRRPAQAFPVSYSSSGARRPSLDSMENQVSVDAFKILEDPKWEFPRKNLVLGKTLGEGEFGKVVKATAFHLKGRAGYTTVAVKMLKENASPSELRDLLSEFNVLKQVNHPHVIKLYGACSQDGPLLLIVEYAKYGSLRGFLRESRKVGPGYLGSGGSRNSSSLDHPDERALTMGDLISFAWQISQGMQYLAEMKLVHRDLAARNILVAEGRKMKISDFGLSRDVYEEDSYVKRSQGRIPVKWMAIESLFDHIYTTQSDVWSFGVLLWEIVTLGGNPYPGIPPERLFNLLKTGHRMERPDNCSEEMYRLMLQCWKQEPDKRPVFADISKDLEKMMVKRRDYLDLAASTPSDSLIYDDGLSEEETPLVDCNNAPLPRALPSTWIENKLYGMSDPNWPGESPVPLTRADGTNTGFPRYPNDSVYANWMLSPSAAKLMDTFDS", "test": "Kinase selectivity profiling"}, "[18]": {"target": "DYRK2 (Homo sapiens, UniProt Q92630)", "sequence (Q92630 whole entry)": "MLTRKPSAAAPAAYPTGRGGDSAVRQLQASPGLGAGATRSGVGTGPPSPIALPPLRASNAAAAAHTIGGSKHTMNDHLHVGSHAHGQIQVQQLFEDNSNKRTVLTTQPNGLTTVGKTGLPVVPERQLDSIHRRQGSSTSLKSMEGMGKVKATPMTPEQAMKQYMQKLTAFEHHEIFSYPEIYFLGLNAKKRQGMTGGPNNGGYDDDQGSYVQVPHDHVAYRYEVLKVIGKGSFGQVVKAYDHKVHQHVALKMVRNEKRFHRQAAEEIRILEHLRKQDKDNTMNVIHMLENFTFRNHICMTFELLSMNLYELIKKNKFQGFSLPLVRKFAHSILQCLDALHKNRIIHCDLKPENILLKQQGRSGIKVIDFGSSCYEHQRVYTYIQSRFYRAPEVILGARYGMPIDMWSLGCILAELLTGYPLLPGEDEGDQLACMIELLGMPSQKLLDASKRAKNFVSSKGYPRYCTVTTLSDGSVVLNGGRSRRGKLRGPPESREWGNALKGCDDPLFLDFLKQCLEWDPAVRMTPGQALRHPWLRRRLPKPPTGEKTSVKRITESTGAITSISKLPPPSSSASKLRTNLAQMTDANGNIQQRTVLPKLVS", "test": "Kinase selectivity profiling"}, "[19]": {"test": "GSH reaction assay", "assay_type": "in vitro ADME", "details": "GSH 5 mM, inhibitor 1 mM, 37°C, 10–60 min", "method": "GSH (5 mM) and inhibitor (1 mM) or DMSO control were mixed in equal volumes and reacted at 37°C for 10 min, 20 min, 30 min, 40 min, 50 min, and 60 min. The remaining GSH was detected with DTNB (Beyotime, China), and the absorption light was measured at 412 nm on a plate reader (Perkin-Elmer). Data were determined using the time (min) versus % of control in Origin 2018 software."}, "[20]": {"target": "MET (Homo sapiens, UniProt P08581)", "test": "Kinase selectivity profiling"}, "[21]": {"target": "CDK16/CycY (Homo sapiens, UniProt Q00536)", "test": "Kinase selectivity profiling"}, "[22]": {"target": "CK1α(CSNK1A1) (Homo sapiens, UniProt P48729)", "test": "Kinase selectivity profiling"}, "[23]": {"target": "CDK2/CycA2 (Homo sapiens, UniProt P24941)", "test": "Kinase selectivity profiling"}, "[24]": {"target": "PIM1 (Homo sapiens, UniProt P11309)", "test": "Kinase selectivity profiling"}, "[25]": {"target": "YSK1 (Homo sapiens, UniProt O00506)", "test": "Kinase selectivity profiling"}, "[26]": {"test_system": "parental Ba/F3 cells", "test": "Ba/F3 cell viability assay", "assay_type": "cell-based", "details": "Mus musculus, BaF3, 72 h, CCK-8"}, "[27]": {"target": "CK1γ3 (Homo sapiens, UniProt Q9Y6M4)", "sequence (Q9Y6M4 whole entry)": "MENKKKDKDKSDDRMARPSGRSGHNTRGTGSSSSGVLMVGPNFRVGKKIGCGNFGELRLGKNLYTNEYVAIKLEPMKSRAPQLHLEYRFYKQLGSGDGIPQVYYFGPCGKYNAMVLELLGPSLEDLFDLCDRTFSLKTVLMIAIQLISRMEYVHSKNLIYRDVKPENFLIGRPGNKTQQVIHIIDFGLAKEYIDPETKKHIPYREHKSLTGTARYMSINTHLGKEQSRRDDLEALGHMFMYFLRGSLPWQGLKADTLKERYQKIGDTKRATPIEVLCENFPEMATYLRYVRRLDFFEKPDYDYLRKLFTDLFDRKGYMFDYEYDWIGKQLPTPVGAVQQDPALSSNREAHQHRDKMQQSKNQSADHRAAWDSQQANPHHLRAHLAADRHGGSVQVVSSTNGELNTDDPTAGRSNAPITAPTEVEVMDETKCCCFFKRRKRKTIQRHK", "test": "Kinase selectivity profiling"}, "[28]": {"target": "PDGFRa (Homo sapiens, UniProt P16234)", "test": "Kinase selectivity profiling"}, "[29]": {"target": "FES (Homo sapiens, UniProt P07332)", "test": "Kinase selectivity profiling"}, "[30]": {"target": "DCAMKL2 (Homo sapiens, UniProt Q8N568)", "test": "Kinase selectivity profiling"}, "[31]": {"target": "EPHA3 (Homo sapiens, UniProt P29320)", "test": "Kinase selectivity profiling"}, "[32]": {"target": "p38β (Homo sapiens, UniProt Q15759)", "test": "Kinase selectivity profiling"}, "[33]": {"target": "RSK4 (Homo sapiens, UniProt Q9UK32)", "test": "Kinase selectivity profiling"}, "[34]": {"target": "MAP3K3 (Homo sapiens, UniProt Q99759)", "test": "Kinase selectivity profiling"}, "[35]": {"target": "ALK4 (Homo sapiens, UniProt P36896)", "sequence (P36896 24-505)": "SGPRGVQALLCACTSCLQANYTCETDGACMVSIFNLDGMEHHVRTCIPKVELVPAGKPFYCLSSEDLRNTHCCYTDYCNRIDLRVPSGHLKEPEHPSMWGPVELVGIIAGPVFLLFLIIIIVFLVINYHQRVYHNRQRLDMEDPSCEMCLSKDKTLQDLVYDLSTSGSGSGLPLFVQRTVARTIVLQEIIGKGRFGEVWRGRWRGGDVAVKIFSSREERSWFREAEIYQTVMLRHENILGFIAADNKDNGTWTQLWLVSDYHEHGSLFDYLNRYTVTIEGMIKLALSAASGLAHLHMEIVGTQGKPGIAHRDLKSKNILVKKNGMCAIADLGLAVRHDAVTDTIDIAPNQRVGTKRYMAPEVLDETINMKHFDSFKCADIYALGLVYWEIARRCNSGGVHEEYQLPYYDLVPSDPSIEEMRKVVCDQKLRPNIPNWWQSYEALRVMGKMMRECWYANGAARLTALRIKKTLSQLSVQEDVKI", "test": "Kinase selectivity profiling"}, "[36]": {"target": "PAK1 (Homo sapiens, UniProt Q13153)", "sequence (Q13153 whole entry)": "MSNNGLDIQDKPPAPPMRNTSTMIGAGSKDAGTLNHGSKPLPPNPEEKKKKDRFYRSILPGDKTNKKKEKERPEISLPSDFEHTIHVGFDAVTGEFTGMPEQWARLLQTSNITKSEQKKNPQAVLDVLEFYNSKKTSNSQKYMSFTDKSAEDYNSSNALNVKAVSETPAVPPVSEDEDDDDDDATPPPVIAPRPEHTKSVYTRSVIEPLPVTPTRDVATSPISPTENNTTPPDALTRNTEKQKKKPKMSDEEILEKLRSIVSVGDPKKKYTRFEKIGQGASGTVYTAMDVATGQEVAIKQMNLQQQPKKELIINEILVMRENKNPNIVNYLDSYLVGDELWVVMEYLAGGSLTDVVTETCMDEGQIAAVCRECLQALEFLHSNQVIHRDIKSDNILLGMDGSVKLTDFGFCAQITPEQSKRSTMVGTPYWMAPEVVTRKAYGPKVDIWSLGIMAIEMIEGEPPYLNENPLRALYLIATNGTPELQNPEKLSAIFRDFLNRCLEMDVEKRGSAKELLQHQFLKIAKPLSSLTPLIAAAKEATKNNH", "test": "Kinase selectivity profiling"}, "[37]": {"target": "MAP4K2 (Homo sapiens, UniProt Q12851)", "test": "Kinase selectivity profiling"}, "[38]": {"target": "p70S6K (Homo sapiens, UniProt P23443)", "test": "Kinase selectivity profiling"}, "[39]": {"target": "EPHA7 (Homo sapiens, UniProt Q15375)", "test": "Kinase selectivity profiling"}},
  "note": "pIC50: −log10 of the molar value.",
  "data": [
    {"smiles": "C=CC(=O)Nc1ccccc1Nc1ncc2c(n1)N(CCCN1CCN(C(=O)C=C)CC1)C(=O)N(c1cc(OC)cc(OC)c1)C2", "note": "[CXF-009]", "values": [
      {"measurement": "inhibition at 1 µM", "setting": "[1]", "value": 42.1, "unit": "%"},
      {"measurement": "inhibition at 1 µM", "setting": "[2]", "value": -1.68, "unit": "%"},
      {"measurement": "inhibition at 1 µM", "setting": "[3]", "value": 2.24, "unit": "%"},
      {"measurement": "inhibition at 1 µM", "setting": "[4]", "value": 0.4, "unit": "%"},
      {"measurement": "inhibition at 1 µM", "setting": "[5]", "value": 3.48, "unit": "%"},
      {"measurement": "inhibition at 1 µM", "setting": "[6]", "value": 0.15, "unit": "%"},
      {"measurement": "inhibition at 1 µM", "setting": "[7]", "value": 5.29, "unit": "%"},
      {"measurement": "inhibition at 1 µM", "setting": "[8]", "value": -1.49, "unit": "%"},
      {"measurement": "inhibition at 1 µM", "setting": "[9]", "value": -4.4, "unit": "%"},
      {"measurement": "inhibition at 1 µM", "setting": "[10]", "value": 10.6, "unit": "%"},
      {"measurement": "inhibition at 1 µM", "setting": "[11]", "value": 7.28, "unit": "%"},
      {"measurement": "inhibition at 1 µM", "setting": "[12]", "value": 2.77, "unit": "%"},
      {"measurement": "inhibition at 1 µM", "setting": "[13]", "value": 0.59, "unit": "%"},
      {"measurement": "inhibition at 1 µM", "setting": "[14]", "value": -3.46, "unit": "%"},
      {"measurement": "inhibition at 1 µM", "setting": "[15]", "value": -12.8, "unit": "%"},
      {"measurement": "inhibition at 1 µM", "setting": "[16]", "value": -4.53, "unit": "%"},
      {"measurement": "inhibition at 1 µM", "setting": "[17]", "value": 1.72, "unit": "%"},
      {"measurement": "inhibition at 1 µM", "setting": "[18]", "value": 0.38, "unit": "%"},
      {"measurement": "GSH reactivity (remaining GSH, DTNB)", "setting": "[19]", "value": "slightly more reactive to GSH than PRN1371"},
      {"measurement": "inhibition at 1 µM", "setting": "[20]", "value": 2.65, "unit": "%"},
      {"measurement": "inhibition at 1 µM", "setting": "[21]", "value": -7.9, "unit": "%"},
      {"measurement": "inhibition at 1 µM", "setting": "[22]", "value": 2.6, "unit": "%"},
      {"measurement": "inhibition at 1 µM", "setting": "[23]", "value": -2.58, "unit": "%"},
      {"measurement": "inhibition at 1 µM", "setting": "[24]", "value": 24.2, "unit": "%"},
      {"measurement": "inhibition at 1 µM", "setting": "[25]", "value": -8.51, "unit": "%"},
      {"measurement": "pIC50", "setting": "[26]", "value": "< 5.30"},
      {"measurement": "inhibition at 1 µM", "setting": "[27]", "value": -7.86, "unit": "%"},
      {"measurement": "inhibition at 1 µM", "setting": "[28]", "value": -0.91, "unit": "%"},
      {"measurement": "inhibition at 1 µM", "setting": "[29]", "value": -7.81, "unit": "%"},
      {"measurement": "inhibition at 1 µM", "setting": "[30]", "value": 18.9, "unit": "%"},
      {"measurement": "inhibition at 1 µM", "setting": "[31]", "value": -1.81, "unit": "%"},
      {"measurement": "inhibition at 1 µM", "setting": "[32]", "value": 2.25, "unit": "%"},
      {"measurement": "inhibition at 1 µM", "setting": "[33]", "value": 0, "unit": "%"},
      {"measurement": "inhibition at 1 µM", "setting": "[34]", "value": -1.62, "unit": "%"},
      {"measurement": "inhibition at 1 µM", "setting": "[35]", "value": 0.23, "unit": "%"},
      {"measurement": "inhibition at 1 µM", "setting": "[36]", "value": 3.22, "unit": "%"},
      {"measurement": "inhibition at 1 µM", "setting": "[37]", "value": 1.43, "unit": "%"},
      {"measurement": "inhibition at 1 µM", "setting": "[38]", "value": 1.69, "unit": "%"},
      {"measurement": "inhibition at 1 µM", "setting": "[39]", "value": 2.74, "unit": "%"}
    ]}
  ]
}
